Source: patent publication US20240262808A1, “XANTHINE OXIDASE INHIBITOR” (JIANGSU ATOM BIOSCIENCE AND PHARMACEUTICAL CO., LTD., priority 2021, published 2024)
Values belong to the molecule of their own block, whether it stands above or below them.

Molecular target: T1, Xanthine Oxidase (XO) (Bos taurus, UniProt P80457)
T1 construct: purchased Sigma-Aldrich Co., LLC
Assay: Xanthine oxidase activity inhibition test (XO/HRP double enzyme coupling, Ampliflu Red fluorescence)
Assay type: biochemical
Settings: 30 min preincubation and 30 min reaction at 30° C., pH 7.5; read-out: Xanthine oxidase inhibitor activity IC50
Procedure: A double enzyme coupling reaction of Xanthine Oxidase (XO) and Horseradish Peroxidase (HRP) and their substrates was used to test the activity inhibition of xanthine oxidase. First, xanthine oxidase oxidized hypoxanthine to produce xanthine and hydrogen peroxide, and further oxidized xanthine to produce uric acid and hydrogen peroxide. […] The fluorescence intensity of resorufin was determined by fluorescence enzyme spectrometer in direct proportion to xanthine oxidase activity.
In 96-well polypropylene reaction plate, the test compound was diluted into a 200-fold concentration of solution with DMSO through 2.5-fold serial dilution, and further diluted in ultra-pure water to obtain a series of 3-fold concentration of diluted solution.
Reaction solution A: 6 mU/mL xanthine oxidase solution was prepared in 0.1M Tris-HCl (pH7.5) buffer solution.
Reaction solution B: a mixture of 0.6 U/mL horseradish peroxidase solution, 0.15 mM Ampliflu Red and 0.3 mM hypoxanthine in 0.1M Tris-HCl (pH 7.5) buffer solution. The solution was protected from light at 4° C. and was prepared when it was ready for use.
9 μL reaction solution A was mixed with 3-fold concentration serial dilution solution of 9 μL test compound in a 96-well test plate, placed on a flat plate oscillator, and mixed at 30° C. at 100 rpm for 30 min. Then 9 μL reaction solution B was added. The enzyme reaction was carried out at 30° C. for 30 minutes. The fluorescence intensity at excitation light 530 nm and emission light 590 nm was measured by a microplate reader. The fluorescence intensity of the control without xanthine oxidase was 0%, and that of the control without the test compound was 100%.

T1 sequence (P80457 2-1332 limits assumed): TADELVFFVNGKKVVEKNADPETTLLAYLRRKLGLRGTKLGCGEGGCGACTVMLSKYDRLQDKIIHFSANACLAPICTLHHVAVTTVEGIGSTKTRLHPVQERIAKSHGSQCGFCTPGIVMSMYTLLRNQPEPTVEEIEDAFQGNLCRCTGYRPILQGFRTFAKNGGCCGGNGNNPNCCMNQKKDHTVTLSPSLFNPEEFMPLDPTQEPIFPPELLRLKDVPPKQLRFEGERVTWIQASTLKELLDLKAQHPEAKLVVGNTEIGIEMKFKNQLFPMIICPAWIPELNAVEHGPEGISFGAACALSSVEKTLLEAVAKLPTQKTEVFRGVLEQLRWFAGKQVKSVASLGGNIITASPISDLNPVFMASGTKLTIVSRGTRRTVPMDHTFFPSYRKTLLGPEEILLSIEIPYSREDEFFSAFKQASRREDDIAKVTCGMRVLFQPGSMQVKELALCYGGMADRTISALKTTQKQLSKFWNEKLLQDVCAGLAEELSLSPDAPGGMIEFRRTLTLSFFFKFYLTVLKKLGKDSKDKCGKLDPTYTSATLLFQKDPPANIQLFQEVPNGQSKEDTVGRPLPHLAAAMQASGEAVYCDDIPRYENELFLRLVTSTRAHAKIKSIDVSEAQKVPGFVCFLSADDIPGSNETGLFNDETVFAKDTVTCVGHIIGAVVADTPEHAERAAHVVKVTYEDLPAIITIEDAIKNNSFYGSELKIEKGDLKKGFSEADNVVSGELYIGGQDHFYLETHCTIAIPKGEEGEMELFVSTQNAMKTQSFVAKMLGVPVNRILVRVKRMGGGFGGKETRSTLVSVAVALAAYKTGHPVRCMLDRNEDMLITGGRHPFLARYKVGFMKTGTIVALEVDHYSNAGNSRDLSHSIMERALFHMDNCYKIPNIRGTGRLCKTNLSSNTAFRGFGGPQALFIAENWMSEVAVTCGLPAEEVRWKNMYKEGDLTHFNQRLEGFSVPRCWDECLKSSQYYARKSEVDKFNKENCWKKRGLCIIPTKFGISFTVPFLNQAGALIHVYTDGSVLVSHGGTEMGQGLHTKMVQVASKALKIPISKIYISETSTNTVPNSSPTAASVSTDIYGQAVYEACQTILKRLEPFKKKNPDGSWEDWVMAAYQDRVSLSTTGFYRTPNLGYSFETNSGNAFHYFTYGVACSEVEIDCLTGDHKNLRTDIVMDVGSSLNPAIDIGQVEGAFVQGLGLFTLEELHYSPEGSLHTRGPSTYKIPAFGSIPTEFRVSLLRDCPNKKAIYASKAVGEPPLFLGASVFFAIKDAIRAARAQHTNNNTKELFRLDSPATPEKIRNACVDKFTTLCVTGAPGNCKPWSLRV

SMILES: CC(C)n1nc(C#N)c2cc(-c3ccc(C(=O)O)s3)ccc21 [Compound 28, 2-(3-cyano-1-isopropyl-1H-indazole-5-yl)thiophen-2-formic acid]
IC50: 7.91 nM

SMILES: N#Cc1cn(CC2CC2)c2ccc(-n3ncc(C(=O)O)n3)cc12 [Compound 41, 2-(3-cyano-1-cyclopropylmethyl-1H-indole-5-yl)-2H-1,2,3-triazole-4-formic acid]
IC50: 1.72 nM

SMILES: N#Cc1cn(C2CCOC2)c2ccc(-n3ncc(C(=O)O)n3)cc12 (stereo not shown) [Compound 44, 2-[3-cyano-1-(tetrahydrofuran-3-yl)-1H-indole-5-yl]-2H-1,2,3-triazole-4-formic acid]
IC50: 9.58 nM

SMILES: N#Cc1cn(C2CCC2)c2ccc(-n3ncc(C(=O)O)n3)cc12 [Compound 47, 2-(3-cyano-1-cyclobutyl-1H-indole-5-yl)-2H-1,2,3-triazole-4-formic acid]
IC50: 1.71 nM

More lines, now with the values ahead:

IC50: 5.11 nM
SMILES: CC(C)Cn1nc(C#N)c2cc(-n3cc(C(=O)O)cn3)ccc21 [Compound 32, 1-(3-cyano-1-isobutyl-1H-indazole-5-yl)-1H-pyrazole-4-formic acid]

IC50: 11.8 nM
SMILES: CCCn1nc(C#N)c2cc(-n3cc(C(=O)O)cn3)ccc21 [Compound 35, 1-(3-cyano-1-propyl-1H-indazole-5-yl)-1H-pyrazole-4-formic acid]

IC50: 9.89 nM
SMILES: N#Cc1nn(C2CC2)c2ccc(-n3cc(C(=O)O)cn3)cc12 [Compound 50, 1-(3-cyano-1-cyclopropyl-1H-indazole-5-yl)-1H-pyrazole-4-formic acid]
